Data on three compounds can be found in US6713048B2, “Δ9 tetrahydrocannabinol (Δ9 THC) solution metered dose inhalers and methods of use” (Virginia Commonwealth University, priority 1998, dated 2004).

Experiment [1] deals with Spasticity and pain due to spinal cord injury. As to conditions: oral THC (5 mg) or codeine (50 mg); 1 patient; cited from earlier work.
The subject of experiment [2] is Nausea and emesis due to Cancer chemotherapy. The note with it: oral 15 mg THC, 10 mg prochloperzine or placebo; 116 patients; cited from earlier work.
For experiment [3], the system named is Male ICR mice. Description: Antinociception, tail-flick test. The class given is in vivo. On the procedure: (§1) Male ICR mice, weighing approximately 30 g, obtained from Harlan Laboratories (Indianapolis, Ind.) were provided a light cycle of approximately 6 a.m. to 6 p.m., and the temperature remained approximately 23° C. The mice were placed in the lab and allowed to accommodate to the surroundings the evening prior to testing. Animals were allowed food (Harlan Teklab, Madison, Wis.) and water ad libitum.
The exposure chamber was a modified, inverted, 1-liter separation funnel, housed under a fume hood, which allowed four mice to be simultaneously exposed to the aerosol. Air was drawn through the chamber at a rate of approximately 60 ml/minute and filtered through glass wool (Corning Inc., Corning, N.Y.) and charcoal traps (SKC Inc., Eighty Four, Pa.) upon exiting the exposure chamber. Each actuation of Δ^9-THC or vehicle was delivered once per 5 s and the entire exposure period was 10 min. Mice were exposed to 20, 40 or 60 actuations of aerosolized Δ^9-THC or 60 actuations of vehicle.
Mice were placed in separate clear chambers (16.5 cm×25.5 cm×11.5 cm high) and assessed for hypomotility using a Digiscan Animal Activity Monitor (Omnitech Electronics Inc., Columbus, Ohio) in which the total number of photocell-light beam interruptions was counted. Antinociception was assessed in the tail-flick test (D'Amour, F. E., Smith, D. L., A method for determining loss of pain sensation, J Pharm Exp Ther, 72:74-79 (1941)) with heat intensity adjusted to give baseline latencies ranging from 2.0-4.0 seconds. A cut-off time of 10 seconds was used to limit tissue damage. Percent maximum possible effect (%MPE) was determined according to the following formula:
%MPE=[(test latency-baseline latency)/(cut-off-baseline latency)]*100
(§2) A ring-test procedure was used to assess catalepsy. The percent of time during a five minute observation period that mice remained motionless, except for movements related to respiration, while stationed on a 5.7 cm diameter ring stand 23 cm above the laboratory bench, was assessed. Body temperature was assessed by inserting a thermometer probe (Traceable Digital, Control Co., Friendswood, Tex.) 2.5 cm into the rectum. Subjects were assessed for baseline tail-flick latency and rectal temperature prior to drug or vehicle administration. […] Locomotor activity, tail-flick latency, catalepsy, and hypothermia were assessed 5, 20, 40, and 60 minutes, respectively, after aerosol exposure. An additional group of animals was given an i.v. injection of Δ^9-THC (0.3, 1, 3, or 10 mg/kg) or vehicle into a lateral tail vein and assessed in the tail-flick test 20 minutes later. All injections were given in a volume of 0.1 ml per 10 g animal weight.
The statistical analysis of the data was as follows. Data are represented by means±standard error (s.e.). Statistical analysis of the data was performed using Student t-tests (for the physiochemical comparisons of the aerosol), or ANOVA (for pharmacological studies), with significance set at p<0.05. Post hoc tests for significant ANOVAs included either Dunnett's test or Tukey/Kramer post-hoc analysis. […] A sample size of 6-8 mice was used in each group.
(Hot-plate and tail-flick tests time the reaction to a heat stimulus.)

Experiment [4] concerns Male ICR mice. As to the kind of experiment: Locomotor activity (hypomotility), Digiscan Animal Activity Monitor. Format: in vivo. The note with it: SR 141716A 10 mg/kg i.p. 5 min before 60 actuations of Δ^9-THC MDI.
Protocol: Mice were placed in separate clear chambers (16.5 cm×25.5 cm×11.5 cm high) and assessed for hypomotility using a Digiscan Animal Activity Monitor (Omnitech Electronics Inc., Columbus, Ohio) in which the total number of photocell-light beam interruptions was counted. Antinociception was assessed in the tail-flick test (D'Amour, F. E., Smith, D. L., A method for determining loss of pain sensation, J Pharm Exp Ther, 72:74-79 (1941)) with heat intensity adjusted to give baseline latencies ranging from 2.0-4.0 seconds. […] Percent maximum possible effect (%MPE) was determined according to the following formula:
A ring-test procedure was used to assess catalepsy. […] Body temperature was assessed by inserting a thermometer probe (Traceable Digital, Control Co., Friendswood, Tex.) 2.5 cm into the rectum. […]
For experiment [5], the system named is Male ICR mice. Description: Hypothermia, rectal temperature. Format: in vivo. As to conditions: SR 141716A 10 mg/kg i.p. 5 min before 60 actuations of Δ^9-THC MDI. On the procedure:
as §1
(§3) The exposure chamber was a modified, inverted, 1-liter separation funnel, housed under a fume hood, which allowed four mice to be simultaneously exposed to the aerosol. […]
as §2, with “An additional group of animals was given an i.v. injection of Δ^9-THC (0.3, 1, 3, or 10 mg/kg) or vehicle into a lateral tail vein and assessed in the tail-flick test 20 minutes later. All injections were given in a volume of 0.1 ml per 10 g animal weight.” left out

The next experiment relates to mice. As to conditions: cited from earlier work.
In experiment [6] the test system is Male ICR mice. As to the kind of experiment: Catalepsy, ring-test (ring immobility). Format: in vivo. The note with it: SR 141716A 10 mg/kg i.p. 5 min before 60 actuations of Δ^9-THC MDI. The protocol:
as §1, §3
as §2, with “An additional group of animals was given an i.v. injection of Δ^9-THC (0.3, 1, 3, or 10 mg/kg) or vehicle into a lateral tail vein and assessed in the tail-flick test 20 minutes later. All injections were given in a volume of 0.1 ml per 10 g animal weight.” left out

“Also recorded” adds a separate entry of the source.

Take `COc1ccc2c3c1O[C@H]1[C@@H](O)C=C[C@H]4[C@@H](C2)N(C)CC[C@@]341` [codeine]: the effect on spasticity entry in experiment [1] was “codeine did not”.
For the compound `CN1CCN(CCCN2c3ccccc3Sc3ccc(Cl)cc32)CC1` [prochlorperazine], in experiment [2], the “antiemetic effect compared with placebo” value was “each greater than placebo;” and the “antiemetic effects, THC vs prochlorperazine” value was “Equal antiemetic effects”.
For `Cc1c(C(=O)NN2CCCCC2)nn(-c2ccc(Cl)cc2Cl)c1-c1ccc(Cl)cc1` [SR 141716A], in the experiment with Male ICR mice [3] (SR 141716A 10 mg/kg i.p. 5 min before 60 actuations of Δ^9-THC MDI), the “antagonism of Δ^9-THC-induced antinociception” value was “significantly blocked; also recorded: significantly antagonized”. The “AD50 (95% C.L.) in antagonizing the antinociceptive effects of inhaled Δ^9-THC” value with Male ICR mice [3] (i.p. pretreatment, exposure to Δ^9-THC) amounted to 0.8 mg/kg. In the experiment with Male ICR mice [4], the “antagonism of Δ^9-THC-induced hypomotility” value is “significantly blocked; also recorded: significantly antagonized”. The “antagonism of Δ^9-THC-induced hypothermia” value with Male ICR mice [5] is listed as “significantly blocked; also recorded: not completely antagonized; also recorded: significantly antagonized”. For the same compound, the “ED50 in antagonizing antinociceptive effects” value in the experiment on mice (exposure to marijuana smoke (Lichtman et al., 2001)) is given as 0.6 mg/kg. Moreover, in the experiment with mice (mice exposed to marijuana smoke (Lichtman et al., 2001)), the “antagonism of effects of marijuana smoke” value is listed as “only effectively antagonized the antinociceptive response”. For the same compound, the “antagonism of Δ^9-THC-induced catalepsy” value in the experiment with Male ICR mice [6] is listed as “significantly blocked; also recorded: significantly antagonized”.
